Experimental data as given in PubChem BioAssay (NCI).
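Step 1: Grow cells in 96-well plates. Step 2: Expose to compound for 48 hours at 5 concentrations. Step 3: Interpolate endpoints linearly; if unreached, use highest concentration. At the GI50, growth is halved. TGI denotes the concentration required for complete inhibition of growth.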

Legend:
Experiment in all cases: NCI-60 cell line screen, 48 h
CCRF-CEM leukemia = test system: CCRF-CEM leukemia
UACC-257 melanoma = test system: UACC-257 melanoma
OVCAR-8 ovarian = test system: OVCAR-8 ovarian
SK-MEL-28 melanoma = test system: SK-MEL-28 melanoma
SK-MEL-2 melanoma = test system: SK-MEL-2 melanoma
RXF 393 renal = test system: RXF 393 renal
LOX IMVI melanoma = test system: LOX IMVI melanoma
SNB-75 CNS = test system: SNB-75 CNS
UACC-62 melanoma = test system: UACC-62 melanoma
HCC-2998 colon = test system: HCC-2998 colon

Compound	TGI (CCRF-CEM leukemia)	TGI (UACC-257 melanoma)	TGI (OVCAR-8 ovarian)	TGI (SK-MEL-28 melanoma)	TGI (SK-MEL-2 melanoma)	TGI (RXF 393 renal)	TGI (LOX IMVI melanoma)	TGI (SNB-75 CNS)	TGI (UACC-62 melanoma)	TGI (HCC-2998 colon)	GI50 (CCRF-CEM leukemia)	GI50 (UACC-257 melanoma)	GI50 (OVCAR-8 ovarian)	GI50 (SK-MEL-28 melanoma)	GI50 (SK-MEL-2 melanoma)	GI50 (RXF 393 renal)	GI50 (LOX IMVI melanoma)	GI50 (SNB-75 CNS)	GI50 (UACC-62 melanoma)	GI50 (HCC-2998 colon)
C/C(=C\c1ccccc1)n1c(=O)cc(C)n1C	> 100 µM	> 100 µM	> 100 µM	> 100 µM	> 100 µM	> 100 µM	> 100 µM	> 100 µM	> 100 µM	> 100 µM										
H-KIFKKFKTIIKKVWRIFGRF-NH2	> 100 µM	9.58 µM	> 100 µM	5.02 µM	6.23 µM	5.19 µM	> 100 µM	6.99 µM	4.92 µM	7.68 µM	2530 nM	2850 nM	3.28 µM	2210 nM	2630 nM	2090 nM	2980 nM	2500 nM	2030 nM	2650 nM
